Data on 19 compounds can be found in patent publication US10160747B2, “Compounds and methods for kinase modulation, and indications therefor” (Plexxikon Inc., priority 2016, dated 2018).

Broadly, the IC50 is the concentration at which inhibition is half-maximal.

Experiment [1] addresses T1, FLT3-D835Y (Homo sapiens, UniProt P36888, D835Y).
T1 construct: purchased Invitrogen PV3967
T1 sequence (P36888 27-993 D835Y): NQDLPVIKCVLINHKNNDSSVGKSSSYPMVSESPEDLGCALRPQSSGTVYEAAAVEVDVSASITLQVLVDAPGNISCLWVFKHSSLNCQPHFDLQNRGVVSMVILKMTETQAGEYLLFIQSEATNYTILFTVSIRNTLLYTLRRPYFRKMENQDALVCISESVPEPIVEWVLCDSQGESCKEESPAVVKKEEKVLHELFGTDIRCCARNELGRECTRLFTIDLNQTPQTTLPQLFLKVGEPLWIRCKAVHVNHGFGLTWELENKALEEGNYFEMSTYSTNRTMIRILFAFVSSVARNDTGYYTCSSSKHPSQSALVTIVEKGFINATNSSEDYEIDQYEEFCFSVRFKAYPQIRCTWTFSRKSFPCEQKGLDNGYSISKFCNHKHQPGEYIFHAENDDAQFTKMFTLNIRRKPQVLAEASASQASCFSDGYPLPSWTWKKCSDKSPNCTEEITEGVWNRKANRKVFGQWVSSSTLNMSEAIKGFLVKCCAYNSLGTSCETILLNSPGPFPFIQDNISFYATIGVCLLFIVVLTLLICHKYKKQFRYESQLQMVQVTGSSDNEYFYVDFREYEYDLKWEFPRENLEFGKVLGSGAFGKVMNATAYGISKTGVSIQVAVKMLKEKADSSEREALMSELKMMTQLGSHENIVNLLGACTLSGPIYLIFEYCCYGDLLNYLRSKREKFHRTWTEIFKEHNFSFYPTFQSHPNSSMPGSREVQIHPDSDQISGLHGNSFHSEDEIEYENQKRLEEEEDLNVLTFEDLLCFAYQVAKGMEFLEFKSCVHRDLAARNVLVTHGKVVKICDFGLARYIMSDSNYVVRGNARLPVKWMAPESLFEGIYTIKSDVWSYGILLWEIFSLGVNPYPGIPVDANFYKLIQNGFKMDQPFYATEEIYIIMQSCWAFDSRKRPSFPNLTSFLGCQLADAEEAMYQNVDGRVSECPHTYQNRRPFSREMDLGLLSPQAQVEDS
As to the kind of experiment: FLT3-D835Y recombinant enzyme kinase assay (AlphaScreen). The experiment is classed as biochemical. The settings on record: 8 pt, GMean. The essentials: (§1)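 IC50 values come from AlphaScreen proximity signal: phosphorylated biotin-poly(Glu4-Tyr) (30 nM) bridges streptavidin donor and anti-phosphotyrosine PY20 acceptor beads. Enzyme reactions ran at 100 μM ATP for c-KIT versus 10 μM for both FLT3 mutants (ITD, D835Y); beads added in stop buffer, room temperature.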
A general note: Bead proximity is the source of the signal in Alpha formats.

Experiment [2] addresses T2, c-KIT (Homo sapiens, UniProt P10721).
T2 construct: purchased Millipore 14-559K
As to the kind of experiment: c-KIT recombinant enzyme kinase assay (AlphaScreen). The class given is biochemical. The settings on record: 100 ATP, 8 pt. The essentials:
as §1

Molecules are shown by their SMILES.

T2 sequence (P10721 26-976): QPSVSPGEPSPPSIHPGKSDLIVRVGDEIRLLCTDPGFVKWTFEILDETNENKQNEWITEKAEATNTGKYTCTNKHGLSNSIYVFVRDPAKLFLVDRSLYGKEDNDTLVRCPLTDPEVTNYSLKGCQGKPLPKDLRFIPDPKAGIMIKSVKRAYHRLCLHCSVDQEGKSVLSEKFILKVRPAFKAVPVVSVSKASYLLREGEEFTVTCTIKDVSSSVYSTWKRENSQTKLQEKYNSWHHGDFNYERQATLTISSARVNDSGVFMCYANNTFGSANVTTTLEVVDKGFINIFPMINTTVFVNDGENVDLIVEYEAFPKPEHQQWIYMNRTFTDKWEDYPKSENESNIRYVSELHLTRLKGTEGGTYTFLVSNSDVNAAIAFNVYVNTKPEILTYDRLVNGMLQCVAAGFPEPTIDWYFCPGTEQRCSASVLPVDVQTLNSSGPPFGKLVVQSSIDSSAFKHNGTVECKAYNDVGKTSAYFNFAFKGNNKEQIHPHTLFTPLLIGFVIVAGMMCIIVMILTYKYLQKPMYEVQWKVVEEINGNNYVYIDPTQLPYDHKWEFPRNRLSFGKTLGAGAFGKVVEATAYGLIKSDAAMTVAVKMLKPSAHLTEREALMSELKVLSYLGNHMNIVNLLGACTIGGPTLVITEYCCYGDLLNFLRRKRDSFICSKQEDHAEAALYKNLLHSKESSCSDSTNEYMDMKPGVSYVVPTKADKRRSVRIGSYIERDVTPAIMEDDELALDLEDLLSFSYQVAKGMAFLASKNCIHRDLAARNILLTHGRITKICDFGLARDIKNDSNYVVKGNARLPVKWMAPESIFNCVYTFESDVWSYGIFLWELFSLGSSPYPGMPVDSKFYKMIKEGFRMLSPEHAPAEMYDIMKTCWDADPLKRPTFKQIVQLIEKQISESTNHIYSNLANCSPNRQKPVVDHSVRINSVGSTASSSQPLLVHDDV

Consider `CCn1cc(Nc2ncc(-c3ccc(CC(=O)Nc4cnc(OC)c(C(F)(F)F)c4)cc3F)cn2)cn1` [Compound P-0246, 2-[4-[2-[(1-ethylpyrazol-4-yl)amino]pyrimidin-5-yl]-3-fluoro-phenyl]-N-[6-methoxy-5-(trifluoromethyl)-3-pyridyl]acetamide], for which the IC50 in experiment [1] and in experiment [2] was 0.0001 to 10 µM each time.

In the case of `CCn1cc(Nc2ncc(-c3cc(F)c(CC(=O)Nc4cnc(OC)c(C(F)(F)F)c4)cc3F)cn2)cn1` [Compound P-0247, 2-[4-[2-[(1-ethylpyrazol-4-yl)amino]pyrimidin-5-yl]-2,5-difluoro-phenyl]-N-[6-methoxy-5-(trifluoromethyl)-3-pyridyl]acetamide], the IC50 in experiment [1] and in experiment [2] was 0.0001 to 10 µM throughout.

Regarding `CCn1cc(Nc2ncc(-c3ccc(CC(=O)Nc4cnc(C)c(C(F)(F)F)c4)cc3F)cn2)cn1` [Compound P-0248, 2-[4-[2-[(1-ethylpyrazol-4-yl)amino]pyrimidin-5-yl]-3-fluoro-phenyl]-N-[6-methyl-5-(trifluoromethyl)-3-pyridyl]acetamide], the IC50 in experiment [1] and in experiment [2] was 0.0001 to 10 µM in each case.

Turning to `CCn1cc(Nc2ncc(-c3cc(F)c(CC(=O)Nc4cnc(C)c(C(F)(F)F)c4)cc3F)cn2)cn1` [Compound P-0249, 2-[4-[2-[(1-ethylpyrazol-4-yl)amino]pyrimidin-5-yl]-2,5-difluoro-phenyl]-N-[6-methyl-5-(trifluoromethyl)-3-pyridyl]acetamide], the IC50 in experiment [1] and in experiment [2] was 0.0001 to 10 µM in each case.

Consider `CCn1cc(Nc2ncc(-c3ccc(CC(=O)Nc4cc(C(F)(F)F)ccn4)cc3)cn2)cn1` [Compound P-0250, 2-[4-[2-[(1-ethylpyrazol-4-yl)amino]pyrimidin-5-yl]phenyl]-N-[4-(trifluoromethyl)-2-pyridyl]acetamide], for which the IC50 in experiment [1] and in experiment [2] was 0.0001 to 10 µM throughout.

For `CCn1cc(Nc2ncc(-c3ccc(CC(=O)Nc4ccc(C(F)(F)F)cn4)cc3)cn2)cn1` [Compound P-0251, 2-[4-[2-[(1-ethylpyrazol-4-yl)amino]pyrimidin-5-yl]phenyl]-N-[5-(trifluoromethyl)-2-pyridyl]acetamide], the IC50 in experiment [1] and in experiment [2] was 0.0001 to 10 µM throughout.

Regarding `CCn1cc(Nc2ncc(-c3ccc(CC(=O)Nc4ccc(C(F)(F)F)nc4)cc3)cn2)cn1` [Compound P-0252, 2-[4-[2-[(1-ethylpyrazol-4-yl)amino]pyrimidin-5-yl]phenyl]-N-[6-(trifluoromethyl)-3-pyridyl]acetamide], the IC50 in experiment [1] and in experiment [2] was 0.0001 to 10 µM throughout.

With `CCn1cc(Nc2ncc(-c3ccc(CC(=O)Nc4cnc(OC)c(C(F)(F)F)c4)cc3)cn2)cn1` [Compound P-0253, 2-[4-[2-[(1-ethylpyrazol-4-yl)amino]pyrimidin-5-yl]phenyl]-N-[6-methoxy-5-(trifluoromethyl)-3-pyridyl]acetamide], the IC50 in experiment [1] and in experiment [2] was 0.0001 to 10 µM each time.

Take `CCn1cc(Nc2ncc(-c3ccc(CC(=O)Nc4cnc(C)c(C(F)(F)F)c4)cc3)cn2)cn1` [Compound P-0254, 2-[4-[2-[(1-ethylpyrazol-4-yl)amino]pyrimidin-5-yl]phenyl]-N-[6-methyl-5-(trifluoromethyl)-3-pyridyl]acetamide]: the IC50 in experiment [1] and in experiment [2] was 0.0001 to 10 µM in each case.

Take `CCn1cc(Nc2ncc(-c3ccc(CC(=O)Nc4cc(C(F)(F)F)ccn4)c(F)c3)cn2)cn1` [Compound P-0255, 2-[4-[2-[(1-ethylpyrazol-4-yl)amino]pyrimidin-5-yl]-2-fluoro-phenyl]-N-[4-(trifluoromethyl)-2-pyridyl]acetamide]: the IC50 in experiment [1] and in experiment [2] was 0.0001 to 10 µM throughout.

On to `CCn1cc(Nc2ncc(-c3ccc(CC(=O)Nc4ccc(C(F)(F)F)cn4)c(F)c3)cn2)cn1` [Compound P-0256, 2-[4-[2-[(1-ethylpyrazol-4-yl)amino]pyrimidin-5-yl]-2-fluoro-phenyl]-N-[5-(trifluoromethyl)-2-pyridyl]acetamide], for which the IC50 in experiment [1] and in experiment [2] was 0.0001 to 10 µM throughout.

With `CCn1cc(Nc2ncc(-c3ccc(CC(=O)Nc4ccc(C(F)(F)F)nc4)c(F)c3)cn2)cn1` [Compound P-0257, 2-[4-[2-[(1-ethylpyrazol-4-yl)amino]pyrimidin-5-yl]-2-fluoro-phenyl]-N-[6-(trifluoromethyl)-3-pyridyl]acetamide], the IC50 in experiment [1] and in experiment [2] was 0.0001 to 10 µM throughout.

Turning to `CCn1cc(Nc2ncc(-c3ccc(CC(=O)Nc4cncc(C(F)(F)F)c4)c(F)c3)cn2)cn1` [Compound P-0258, 2-[4-[2-[(1-ethylpyrazol-4-yl)amino]pyrimidin-5-yl]-2-fluoro-phenyl]-N-[5-(trifluoromethyl)-3-pyridyl]acetamide], the IC50 in experiment [1] and in experiment [2] was 0.0001 to 10 µM each time.

On to `CCn1cc(Nc2ncc(-c3ccc(CC(=O)Nc4cnc(OC)c(C(F)(F)F)c4)c(F)c3)cn2)cn1` [Compound P-0259, 2-[4-[2-[(1-ethylpyrazol-4-yl)amino]pyrimidin-5-yl]-2-fluoro-phenyl]-N-[6-methoxy-5-(trifluoromethyl)-3-pyridyl]acetamide], for which the IC50 in experiment [1] and in experiment [2] was 0.0001 to 10 µM in each case.

Regarding `CCn1cc(Nc2ncc(-c3ccc(CC(=O)Nc4cnc(Cl)c(C(F)(F)F)c4)c(F)c3)cn2)cn1` [Compound P-0260, N-[6-chloro-5-(trifluoromethyl)-3-pyridyl]-2-[4-[2-[(1-ethylpyrazol-4-yl)amino]pyrimidin-5-yl]-2-fluoro-phenyl]acetamide], the IC50 in experiment [1] and in experiment [2] was 0.0001 to 10 µM throughout.

As to `CCn1cc(Nc2ncc(-c3ccc(CC(=O)Nc4cnc(C)c(C(F)(F)F)c4)c(F)c3)cn2)cn1` [Compound P-0261, 2-[4-[2-[(1-ethylpyrazol-4-yl)amino]pyrimidin-5-yl]-2-fluoro-phenyl]-N-[6-methyl-5-(trifluoromethyl)-3-pyridyl]acetamide], the IC50 in experiment [1] and in experiment [2] was 0.0001 to 10 µM throughout.

With `COc1ncc(NC(=O)Cc2ccc(-c3cnc4[nH]nc(C5CC5)c4c3)cc2F)cc1C(F)(F)F` [Compound P-0262, 2-[4-(3-cyclopropyl-1H-pyrazolo[3,4-b]pyridin-5-yl)-2-fluoro-phenyl]-N-[6-methoxy-5-(trifluoromethyl)-3-pyridyl]acetamide], the IC50 in experiment [1] and in experiment [2] was 0.0001 to 10 µM in each case.

In the case of `COc1ncc(NC(=O)Cc2ccc(-c3cnc4[nH]nc(C5CC5)c4c3)cc2)cc1C(F)(F)F` [Compound P-0263, 2-[4-(3-cyclopropyl-1H-pyrazolo[3,4-b]pyridin-5-yl)phenyl]-N-[6-methoxy-5-(trifluoromethyl)-3-pyridyl]acetamide], the IC50 in experiment [1] and in experiment [2] was 0.0001 to 10 µM throughout.

On to `COCCn1cc(Nc2ncc(-c3ccc(CC(=O)Nc4cnc(OC)c(C(F)(F)F)c4)c(F)c3)cn2)cn1` [Compound P-0265, 2-[2-fluoro-4-[2-[[1-(2-methoxyethyl)pyrazol-4-yl]amino]pyrimidin-5-yl]phenyl]-N-[6-methoxy-5-(trifluoromethyl)-3-pyridyl]acetamide], for which the IC50 in experiment [1] and in experiment [2] was 0.0001 to 10 µM each time.
